{
  "source": "paper PMC8151276",
  "about": "“An Integrated Approach toward NanoBRET Tracers for Analysis of GPCR Ligand Engagement” (Molecules, 2021)",
  "key": {"FZD9": {"biological_target": "T1, FZD9 (Homo sapiens, UniProt O00144)", "T1 construct": "purchased Promega (in-house HiBiT-GPCR construct library, NanoBRET)", "T1 sequence (O00144 23-591)": "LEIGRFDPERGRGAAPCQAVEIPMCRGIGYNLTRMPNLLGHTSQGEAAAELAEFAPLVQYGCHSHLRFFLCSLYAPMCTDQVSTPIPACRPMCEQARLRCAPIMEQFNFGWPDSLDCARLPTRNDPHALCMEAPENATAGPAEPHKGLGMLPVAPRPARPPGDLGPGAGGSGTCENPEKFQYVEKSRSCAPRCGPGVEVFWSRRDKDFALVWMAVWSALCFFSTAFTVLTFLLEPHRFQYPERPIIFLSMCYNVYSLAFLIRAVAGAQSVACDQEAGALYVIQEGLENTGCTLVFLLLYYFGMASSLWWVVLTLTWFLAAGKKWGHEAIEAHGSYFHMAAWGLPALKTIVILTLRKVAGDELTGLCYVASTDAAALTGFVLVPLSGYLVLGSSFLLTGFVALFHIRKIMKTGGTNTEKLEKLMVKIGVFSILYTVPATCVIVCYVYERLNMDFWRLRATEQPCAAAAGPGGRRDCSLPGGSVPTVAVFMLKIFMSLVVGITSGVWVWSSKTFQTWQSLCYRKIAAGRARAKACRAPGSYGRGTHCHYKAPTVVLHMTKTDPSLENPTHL", "test": "NanoBRET screen HiBiT-FZD9 in HEK293", "type": "binding", "experimental": "(§1) Each tracer candidate was screened across the entire library of HiBiT-GPCR constructs using NanoBRET as the detection modality. As depicted in Figure 4A, the specificity of interactions was evaluated through decrease in BRET due to competitive displacement of a bound tracer by excess parental compound. Each tracer was analyzed for binding to each HiBiT-GPCR fusion in the absence and in the presence of competing parental compound. Briefly, HEK293 cells were transfected with HiBiT-GPCR constructs diluted into promoterless DNA to reduce expression and maximize translocation to the cell surface. Each tracer candidate was then screened at concentrations of 1 μM and 0.1 μM across cells expressing these fusions. Cells were treated for 1.5 h with tracer either alone or in the presence of 20 μM competing parental compound (i.e., control). BRET was measured upon addition of purified LgBiT and subsequent complementation with HiBiT genetically fused to a GPCR. The specificity of interactions was assessed through a decrease in BRET signal due to competitive displacement of the bound tracer. To further gauge the robustness of these interactions, the fold response over the control (i.e., BRETtracer/BRETcontrol) was calculated. We chose a 1.5-fold response, which translates to ≥7-fold signal over noise as the minimal threshold required to score an interaction as positive. […]. Below we highlight the screening results obtained for our exemplary fluorescent tracers based on Clozapine, Amitriptyline and AZD1283.\n(§2) HiBiT-GPCR DNA constructs were diluted in 10 mM Tris pH 8 to a final concentration of 0.01 μg/μL, arrayed in 96-well plates and stored at −20 °C. For transfection, HEK293 cells were suspended in Opti-MEM (without phenol red) supplemented with 2% fetal bovine serum (Seradigm) and 100 units/mL penicillin–streptomycin (Gibco) at a final concentration of 220,000 cells/mL and dispensed into white 96-well plates at 90 μL/well. Subsequent transfections and screens were carried using an Agilent Bravo Automated Liquid Handling Platform. First, the 96-well HiBiT DNA arrays were diluted 25-fold in Opti-MEM (without serum or phenol red) to a final concentration of 0.0004 μg/μL and 20 μL of the diluted DNAs were transferred into new 96-well plates. Next, promoterless carrier DNA (1 μg/μL) was diluted 25-fold (0.04 μg/μL) and then dispensed into the diluted arrays at 20 μL/well. Following brief mixing, Viafect transfection reagent (Promega) diluted 16-fold into Opti-MEM was dispensed into the plates at 40 μL/well. After mixing by pipetting, plates were incubated for 10 min on the pipetting station deck. The DNA-transfection reagent complexes were then added to plates containing cells. To facilitate the screen, 10 μL of DNA-transfection reagent complexes were added in duplicates to the top 4 and bottom 4 rows, resulting in two identical 48-well arrays per plate. Plates with transfected cells were incubated for 18–20 h at 37 °C/5% CO2. A screen of each tracer across the entire library using two different concentrations requires duplicate plates of transfected cells. Depending on the number of tracers being screened, transfections can be scaled up using the same ratios. The next day, for each tracer, four 20× screening solutions in tracer dilution buffer (Promega) were prepared: two duplicates at final concentration of 20 μM and two duplicates at a final concentration of 2 μM. A competing unmodified compound was added to one of each duplicate at a final concentration of 400 μM. The four resulting solutions were diluted 4-fold in Opti-MEM without serum or phenol red to generate 5× solutions (5 µM and 0.5 µM tracer +/− 100 μM competing compound). To screen the library, a BioTek MultiFlo FX liquid dispenser was used to dispense 22.5 µL of tracer solution to the top 4 rows and 22.5 µL tracer + competing compound solution to the 4 bottom rows. Plates were briefly mixed on an orbital shaker and incubated for 1.5 h at room temperature. […]"}, "AGTR2": {"biological_target": "T2, AGTR2 (Homo sapiens, UniProt P50052)", "T2 construct": "purchased Promega (in-house HiBiT-GPCR construct library, NanoBRET)", "T2 sequence (P50052 1-363)": "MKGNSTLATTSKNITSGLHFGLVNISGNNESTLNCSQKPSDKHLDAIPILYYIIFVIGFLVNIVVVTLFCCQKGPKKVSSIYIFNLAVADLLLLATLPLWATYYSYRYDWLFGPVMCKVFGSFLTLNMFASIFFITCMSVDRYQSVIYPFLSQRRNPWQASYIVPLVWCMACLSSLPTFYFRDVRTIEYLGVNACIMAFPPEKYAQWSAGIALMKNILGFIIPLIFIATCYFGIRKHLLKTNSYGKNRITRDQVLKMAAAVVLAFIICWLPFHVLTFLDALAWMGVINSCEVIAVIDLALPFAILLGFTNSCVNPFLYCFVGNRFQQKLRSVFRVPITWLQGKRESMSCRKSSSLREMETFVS", "test": "NanoBRET screen HiBiT-AGTR2 in HEK293", "type": "binding", "experimental": "as §1, §2"}, "[1]": {"details": "tracer at 1μM, listed as amitriptyline-b-2-NB590"}},
  "data": [
    {"smiles": "CCOC(=O)c1cc(C#N)c(N2CCC(C(=O)NS(=O)(=O)Cc3ccccc3/C=C/C(=O)NCCNC(=O)CCc3ccc4n3[B-](F)(F)[N+]3=C(c5ccc[nH]5)C=CC3=C4)CC2)nc1C", "note": "[AZD1283-1-NB590]", "values": [
      {"measurement": "NanoBRET Fold Response", "setting": "FZD9; FZD9, 0.1μM", "result": 1.05},
      {"measurement": "NanoBRET Fold Response", "setting": "FZD9; FZD9, 1μM", "result": 1.02},
      {"measurement": "NanoBRET Fold Response", "setting": "AGTR2; AGTR2, 0.1μM", "result": 1.13},
      {"measurement": "NanoBRET Fold Response", "setting": "AGTR2; AGTR2, 1μM", "result": 1.17}
    ]},
    {"smiles": "N#CN=C(NCCCOc1cccc(CN2CCCCC2)c1)NCCNC(=O)CCOCCOCCOCCOCCNC(=O)CCc1ccc2n1[B-](F)(F)[N+]1=C(c3ccc[nH]3)C=CC1=C2", "note": "[Aminopotentidine-2-NB590]", "values": [
      {"measurement": "NanoBRET Fold Response", "setting": "FZD9; FZD9, tracer 0.1μM", "result": 1.08},
      {"measurement": "NanoBRET Fold Response", "setting": "FZD9; FZD9, tracer 1μM", "result": 1.01},
      {"measurement": "NanoBRET Fold Response", "setting": "AGTR2; AGTR2, tracer 0.1μM", "result": 0.98},
      {"measurement": "NanoBRET Fold Response", "setting": "AGTR2; AGTR2, tracer 1μM", "result": 1.04}
    ]},
    {"smiles": "CN(C)CCC=C1c2ccccc2CCc2ccc(C(=O)NCCNC(=O)CCOCCOCCOCCOCCNC(=O)CCc3ccc4n3[B-](F)(F)[N+]3=C(c5ccc[nH]5)C=CC3=C4)cc21", "note": "[Amitriptyline-a-2-NB590]", "values": [
      {"measurement": "NanoBRET Fold Response", "setting": "FZD9; tracer at 0.1μM", "result": 0.96},
      {"measurement": "NanoBRET Fold Response", "setting": "FZD9; tracer at 1μM", "result": 1.07},
      {"measurement": "NanoBRET Fold Response", "setting": "AGTR2; tracer at 0.1μM", "result": 1.01},
      {"measurement": "NanoBRET Fold Response", "setting": "AGTR2; tracer at 1μM", "result": 0.98}
    ]},
    {"smiles": "CN(C)CCC=C1c2ccccc2CCc2ccc(C(=O)NCCNC(=O)CCOCCOCCOCCOCCNC(=O)CCc3ccc4n3[B-](F)(F)[N+]3=C(c5ccc[nH]5)C=CC3=C4)cc21", "note": "[Amitriptyline-b-2-NB590]", "values": [
      {"measurement": "NanoBRET Fold Response", "setting": "FZD9; tracer at 0.1μM, listed as amitriptyline-b-2-NB590", "result": 1.04},
      {"measurement": "NanoBRET Fold Response", "setting": "FZD9; [1]", "result": 1.11},
      {"measurement": "NanoBRET Fold Response", "setting": "AGTR2; tracer at 0.1μM", "result": 0.84},
      {"measurement": "NanoBRET Fold Response", "setting": "AGTR2; [1]", "result": 0.87}
    ]},
    {"smiles": "CN(CCC=C1c2ccccc2CCc2ccccc21)C(=O)CCOCCOCCOCCOCCNC(=O)CCc1ccc2n1[B-](F)(F)[N+]1=C(c3ccc[nH]3)C=CC1=C2", "note": "[Amitriptyline-e-2-NB590]", "values": [
      {"measurement": "NanoBRET Fold Response", "setting": "AGTR2; tracer at 1μM", "result": 0.97}
    ]},
    {"smiles": "COc1ccc2c(n1)c(CCNC(C)=O)cn2CCNC(=O)CCc1ccc2n1[B-](F)(F)[N+]1=C(c3ccc[nH]3)C=CC1=C2", "note": "[Azamelatonin-1-NB590]", "values": [
      {"measurement": "NanoBRET Fold Response", "setting": "FZD9; 0.1μM tracer", "result": 1.17},
      {"measurement": "NanoBRET Fold Response", "setting": "FZD9; 1μM tracer", "result": 1.15},
      {"measurement": "NanoBRET Fold Response", "setting": "AGTR2; 0.1μM tracer", "result": 1.23},
      {"measurement": "NanoBRET Fold Response", "setting": "AGTR2; 1μM tracer", "result": 0.87}
    ]},
    {"smiles": "COc1ccc2[nH]c(-c3ccc(CNC(=O)CCOCCOCCOCCOCCNC(=O)CCc4ccc5n4[B-](F)(F)[N+]4=C(c6ccc[nH]6)C=CC4=C5)cc3)c(CCNC(C)=O)c2n1", "note": "[AzomelatoninICO9-2-NB590]", "values": [
      {"measurement": "NanoBRET Fold Response", "setting": "FZD9; 0.1μM tracer", "result": 1.30},
      {"measurement": "NanoBRET Fold Response", "setting": "FZD9; 1μM tracer", "result": 0.94},
      {"measurement": "NanoBRET Fold Response", "setting": "AGTR2; 0.1μM tracer", "result": 0.88},
      {"measurement": "NanoBRET Fold Response", "setting": "AGTR2; 1μM tracer", "result": 0.95}
    ]},
    {"smiles": "O=C(CCOCCOCCOCCOCCNC(=O)CCc1ccc2n1[B-](F)(F)[N+]1=C(c3ccc[nH]3)C=CC1=C2)NCCCN1CCN(C2=Nc3cc(Cl)ccc3Nc3ccccc32)CC1", "note": "[Clozapine-a-2-NB590]", "values": [
      {"measurement": "NanoBRET Fold Response", "setting": "FZD9; FZD9, 0.1μM tracer", "result": 1.00},
      {"measurement": "NanoBRET Fold Response", "setting": "FZD9; FZD9, 1μM tracer", "result": 1.39},
      {"measurement": "NanoBRET Fold Response", "setting": "AGTR2; AGTR2, 0.1μM tracer", "result": 1.02},
      {"measurement": "NanoBRET Fold Response", "setting": "AGTR2; AGTR2, 1μM tracer", "result": 1.03}
    ]}
  ]
}
